Where two headings read alike, the source gives them in different places.
What was measured:
3T3-L1 cells = experiment: Induction of adipocyte differentiation (amount of triglyceride biosynthesis); type: cell-based; settings: Mus musculus
Method: Induction of adipocyte differentiation was carried out by partially modifying the above-mentioned method of Rubin C. S. et al. In addition, as a test compound, a compound prepared in Examples mentioned above or a commercially available compound was used. 3T3-L1 cells (ATCC CCL-92.1) were suspended in a 10% fetal bovine serum (manufactured by Bio Whittaker)-containing Dulbecco's modified Eagle's medium (manufactured by Sigma, D6046) containing 200 μM ascorbic acid so as to have a density of 4×10^3 cells/mL, and the suspension was put in each well of a 12-well microtiter plate in an amount of 2 ml per well. The cells were cultured at 37° C. for 7 days in the presence of 5% carbon dioxide gas. On the seventh day, the medium was exchanged with a 10% fetal bovine serum (manufactured by Bio Whittaker)-containing Dulbecco's modified Eagle's medium containing 200 μM ascorbic acid and 0.25 μM dexamethasone, and a test compound dissolved in dimethyl sulfoxide in a concentration shown in each of Tables 16 to 19 was added to each well. Here, there were set a group with addition of 4 μL of an aqueous solution containing 5 mg/mL insulin (manufactured by TAKARA BIO INC.) as a positive control, and a group with addition of dimethyl sulfoxide as a negative control. After 45 hours, the medium was exchanged with a 10% fetal bovine serum-containing Dulbecco's modified Eagle's medium containing 200 μM ascorbic acid. A test compound, 2 μL of an aqueous solution containing 5 mg/mL insulin as a positive control, or dimethyl sulfoxide as a negative control was put to each well in the same concentration. The cells were cultured for additional 7 days. In addition, the medium was exchanged on after 2 days and after 5 days, and at that time, a test compound, 2 μL of an aqueous solution containing 5 mg/mL insulin as a positive control, or dimethyl sulfoxide as a negative control was put to each well in the same concentration.
The amount of triglyceride in the adipocytes was determined as an index of induction of differentiation into mature adipocytes, and also, as the evaluation of insulin-mimetic action.
After the termination of the culture, the medium was removed, and the cells were washed twice with a phosphate buffered saline. One milliliter of a solvent of hexane:isopropanol=3:2 was added to the cells. The mixture was allowed to stand at room temperature for 30 minutes, and thereafter the supernatant was collected. The procedures were repeated again, and 2 mL of the supernatant was concentrated to dryness. The precipitate was dissolved in 100 μL of isopropanol, and the amount of triglyceride contained in 10 μL of the solution was determined using a triglyceride E-test (manufactured by Wako Pure Chemical Industries, Ltd., code 432-40201). In addition, all the determinations were carried out twice. The action for induction of differentiation was calculated by the following calculation formula, and shown by four ranks of +++, ++, + and +/−. • S: Amount of triglyceride in the presence of a test compound; • N: Amount of triglyceride in the negative control; and • P: Amount of triglyceride in the positive control; X=(S−N)/(P−N) (Judgment of Action for Induction of Differentiation)

[1] = test system: mature adipocytes (3T3-L1 cells); experiment: Enhancing action on glucose uptake (2-deoxyglucose) into mature adipocytes; type: cell-based; settings: Mus musculus
Method: The induction of differentation into nature adipocytes was carried out by partially modifying the above-mentioned method of Rubin C. S. et al. 3T3-L1 cells (ATCC CCL-92.1) were suspended in a 10% fetal bovine serum (manufactured by Bio Whittaker)-containing Dulbecco's modified Eagle's medium (manufactured by Sigma, D6046) containing 200 μM ascorbic acid so as to have a density of 4×10^3 cells/mL, and the suspension was put in each well of a collagen type I-coated 12-well plate (Iwaki Glass Co., Ltd., code 4815-010) in an amount of 2 mL per well. The cells were cultured at 37° C. for 7 days in the presence of 5% carbon dioxide gas. On the seventh day, the medium was exchanged with 2 mL of a 10% fetal bovine serum (manufactured by Bio Whittaker)-containing Dulbecco's modified Eagle's medium containing 200 μM ascorbic acid, 0.25 μM dexamethasone, 10 μg/mL insulin (manufactured by TAKARA BIO INC.) and 0.5 mM 3-isobutyl-1-methylxanthine (manufactured by nacalai tesque, 19624-86). After 45 hours, the medium was exchanged with 2 mL of a 10% fetal bovine serum-containing Dulbecco's modified Eagle's medium containing 200 μM ascorbic acid and 5 μg/mL insulin. The medium was exchanged on after 2 days and 5 days, and the cells were cultured for 7 days, to give mature adipocytes.
As the evaluation of the enhancing action on glucose uptake, and also as the evaluation of the insulin-mimetic action, the amount of 2-deoxyglucose uptake into mature adipocytes during the stimulation of the test compound in the adipocytes was determined. As a test compound, a compound prepared in the Examples mentioned above or a commercially available compound was used.
After the termination of the culture, the medium was removed, and the cells were washed twice with a 0.1% (w/v) bovine serum albumin (manufactured by Sigma, A8022)-containing Dulbecco's modified Eagle's medium. Thereafter, 1 mL of the same medium containing a test compound in a concentration shown in each of Tables 20 to 23 was put to each well. The cells were cultured overnight at 37° C. in the presence of 5% carbon dioxide gas. Here, a group without containing the test compound was set as a negative control. After the overnight culture, the cells were washed twice with a HEPES buffer (140 mM NaCl, 5 mM KCl, 2.5 mM MgSO4, 1 mM CaCl2, 20 mM HEPES-Na (pH 7.4)). The amount 0.9 mL of the buffer containing a test compound in the same concentration was added to each well. The cells were cultured at 37° C. for 75 minutes. During the culture, as a positive control, there was set a group with addition of insulin to the well without addition of a test compound at a point 45 minutes passed so as to have a final concentration of 1 μg/mL. Thereafter, 100 μL of a HEPES buffer containing 0.5 μCi/mL 2-deoxy-[1,2-^3H(N)]-glucose (manufactured by PerkinElmer Life Sciences Inc., NET549A) and 1 mM 2-deoxyglucose (manufactured by nacalai tesque, 10722-11) was added thereto. The cells were cultured at 37° C. for additional 10 minutes. After the termination of the culture, the supernatant was removed, and the cells were washed three times with a phosphate buffer cooled to 4° C. Thereafter, 0.5 mL of a 1% Nonidet P-40-containing phosphate buffer was added to lyse the cells, whereby 2-deoxy-[1,2-^3H(N)]-glucose subjected to uptake into the cells was eluted. The radioactivity was determined with a liquid scintillation counter LS6500 (manufactured by Beckmann) using 25 μL of the supernatant with Ultima Gold (manufactured by PerkinElmer Life Sciences Inc., 6013329) as a scintillation cocktail. The enhancing action on glucose uptake was calculated by the following calculation formula, and shown by four ranks of +++, ++, + and +/−. • S: Amount of 2-deoxyglucose uptake in the presence of a test compound; • N: Amount of 2-deoxyglucose uptake in the negative control; and • P: Amount of 2-deoxyglucose uptake in the positive control; X=(S−N)/(P−N) (Judgment of Enhancing Action for 2-Deoxyglucose Uptake)

[2] = 3T3-L1, 3 μM, X=(S−N)/(P−N) of amount of triglyceride, P=insulin positive control, read-out: Action for Induction of Differentiation
[3] = 3T3-L1, 10 μM, X=(S−N)/(P−N) of amount of triglyceride, P=insulin positive control, read-out: Action for Induction of Differentiation
[4] = 3T3-L1, 30 μM, X=(S−N)/(P−N) of amount of triglyceride, P=insulin positive control, read-out: Action for Induction of Differentiation
[5] = 3T3-L1, X=(S−N)/(P−N) of amount of triglyceride, P=insulin positive control, read-out: Action for Induction of Differentiation
[6] = 3T3-L1, read-out: Action for Induction of Differentiation
[7] = 3T3-L1, 10 μM, X=(S−N)/(P−N) of 2-deoxyglucose uptake, P=insulin 1 μg/mL, read-out: Enhancing Action on Glucose Uptake
[8] = 3T3-L1, 30 μM, X=(S−N)/(P−N) of 2-deoxyglucose uptake, P=insulin 1 μg/mL, read-out: Enhancing Action on Glucose Uptake
[9] = 3T3-L1, read-out: Enhancing Action on Glucose Uptake

Row | SMILES | activation at 3 µM (3T3-L1 cells; [2]) | activation at 10 µM (3T3-L1 cells; [3]) | activation at 30 µM (3T3-L1 cells; [4]) | further results
1 | CC(C)=CCC/C(C)=C/COc1ccc([C@@H]2CC(=O)c3c(O)cc(O)cc3O2)cc1 [4′-O-Geranylnaringenin] | 30 to 60% | 60 to 100% | > 100% | 
2 | COc1ccc(C(C)=O)c(O)c1C [Compound (C022), 2′-hydroxy-3′-methyl-4′-methoxyacetophenone] |  |  |  | activation at 13 µM (3T3-L1 cells; [5]): 15 to 30%
3 | COc1ccc(C(=O)/C=C/c2ccc(O)cc2)c(O)c1C [Compound (C023), 4,2′-dihydroxy-3′-methyl-4′-methoxychalcone] |  |  |  | activation at 4 µM (3T3-L1 cells; 3T3-L1, 4 μM, X=(S−N)/(P−N) of amount of triglyceride, P=insulin positive control, read-out: Action for Induction of Differentiation): 60 to 100%; activation at 13 µM (3T3-L1 cells; [5]): 60 to 100%
4 | COc1ccc2c(c1CC=C(C)C)OC(c1ccc(O)cc1)CC2=O (centres unmarked) [Compound (C034), 7-methoxy-8-prenyl-4′-hydroxyflavanone] | > 100% | > 100% |  | 
5 | CC(=O)c1ccc(O)c(C/C=C(\C)CCC=C(C)C)c1O [Compound (C036), 2′,4′-dihydroxy-3′-geranylacetophenone] | 15 to 30% | 60 to 100% |  | 
6 | CC(=O)c1ccc(O)c(C/C=C(\C)CC/C=C(\C)CCC=C(C)C)c1O [Compound (C051), 2′,4′-dihydroxy-3′-farnesylacetophenone] |  |  | 60 to 100% | 
7 | CC(=O)c1ccc(O)c(Cc2ccccc2)c1O [Compound (C054), 2′,4′-dihydroxy-3′-benzylacetophenone] | 15 to 30% | 30 to 60% |  | 
8 | COc1ccc(C=O)c(O)c1CC=C(C)C [Compound (C063), 2-hydroxy-3-prenyl-4-methoxybenzaldehyde] | 30 to 60% | 60 to 100% | > 100% | 
9 | CC(=O)c1ccccc1OCc1ccccc1 [Compound (C065), 2′-benzyloxyacetophenone] |  |  |  | activation at 3 µM (3T3-L1 cells; [6]): 30 to 60%; activation at 10 µM (3T3-L1 cells; [6]): 60 to 100%; activation at 30 µM (3T3-L1 cells; [6]): > 100%
10 | COc1ccc(C(=O)/C=C/C=C(C)C)c(O)c1CC=C(C)C [Compound (C069), 1-(2-hydroxy-3-prenyl-4-methoxyphenyl)-5-methyl-2,4-hexadien-1-one] | 30 to 60% | > 100% | > 100% | 
11 | CC(=O)c1ccc(OCc2ccccc2)c(C/C=C(\C)CCC=C(C)C)c1O [Compound (C070), 2′-hydroxy-3′-geranyl-4′-benzyloxyacetophenone] |  | 30 to 60% | 60 to 100% | 
12 | COc1ccc(C(=O)/C=C/c2ccc(O)cc2)c(O)c1C/C=C(\C)C/C=C/C(C)(C)O [Compound (C081), 1-[2-hydroxy-3-(7-hydroxy-3,7-dimethyl-2,5-octadienyl)-4-methoxyphenyl]-3-(4-hydroxyphenyl)-2-propen-1-one] | 60 to 100% | > 100% | > 100% | 
13 | COc1ccc2c(c1C/C=C(\C)CCC=C(C)C)OC(c1ccc(O)cc1)CC2=O (centres unmarked) [Compound (C082), 8-geranyl-4′-hydroxy-7-methoxyflavanone] |  | 60 to 100% |  | 
14 | COc1ccc(C(=O)/C=C/c2cccs2)c(O)c1CC=C(C)C [Compound (C-THP), 1-(2-hydroxy-4-methoxy-3-prenylphenyl)-3-(2-thienyl)-2-propen-1-one] | 60 to 100% | > 100% |  | activation at 1 µM (3T3-L1 cells; 3T3-L1, 1 μM, X=(S−N)/(P−N) of amount of triglyceride, P=insulin positive control, read-out: Action for Induction of Differentiation): 15 to 30%
15 | CC(C)=CCCC1(C)C=Cc2c(ccc(C(=O)/C=C/c3ccc(O)cc3)c2O)O1 (centres unmarked) [Lespeol] |  |  |  | activation at 10 µM [1, 7]: 60 to 100%; activation at 30 µM [1, 8]: 60 to 100%
16 | CC(C)=CCC/C(C)=C/Cc1c(O)ccc2c1OC(c1ccc(O)cc1)CC2=O (centres unmarked) [Prostratol F] | 60 to 100% | 60 to 100% |  | 
17 | CCCCC1OC(=O)C2=CCCCC21 (centres unmarked) [Sedanolide] |  |  |  | activation at 10 µM [1, 7]: 15 to 30%; activation at 30 µM [1, 8]: 60 to 100%
18 | CC12CCC(O)C(C)(C)C1Cc1c(O)ccc(C(=O)/C=C/c3ccc(O)cc3)c1O2 (centres unmarked) [TB1, 1-(5,6,7,8,8a,10a-hexahydro-1,7-dihydroxy-8,8,10a-trimethyl-9H-xanthen-4-yl)-3-(4-hydroxyphenyl)-2-propen-1-one] | > 100% | 60 to 100% |  | 
19 | COc1ccc(C(=O)/C=C/c2ccc(O)cc2)c(O)c1CC1C2(C)CCC(O2)C1(C)C (centres unmarked) [TB7, 1-[3-(2,5-epoxy-2,6,6-trimethyl-cyclohexylmethyl)-2-hydroxy-4-methoxyphenyl]-3-(4-hydroxyphenyl)-2-propen-1-one] |  |  |  | activation at 10 µM [1, 7]: > 100%; activation at 30 µM [1, 8]: > 100%
20 | CCC/C=C1\OC(=O)c2ccccc21 [n-Butylidenephthalide] |  |  |  | activation at 3 µM [1, 9]: 30 to 60%; activation at 10 µM [1, 9]: 60 to 100%; activation at 30 µM [1, 9]: > 100%

Reference: patent US20070092551A1, “Therapeutic agent” (TAKARA BIO INC., priority 2003, published 2007)
